Data: US20080145858A1, “DETECTION AND IDENTIFICATION OF TOXICANTS BY MEASUREMENT OF GENE […]” (priority 2003, published 2008)
Marks after values point to notes of the source that are not given here.

System: Xenopus laevis neurulation stage embryos (stage 15)
Assay: Xenopus cDNA microarray, differential gene expression after PMA treatment during neurulation (Group II)
Type: in vivo
Settings: for Ratio of Medians (Cy5/Cy3) Mean / Ratio of Medians (Cy5/Cy3) Second Spot / Cy3/Cy5 by Landmarks (0.25) / Cy3/Cy5 by all Data Points (0.469) / Normalized by Landmarks (0.25) / Normalized by all Data Points (0.469) / Ratio of Medians (Cy5/Cy3) First Spot: PMA, stage 15; for % increase of mRNA expression by Microarray analysis (NF by all data point): Stage 15
Excerpt: Specifically, the method and screen of the present invention function as follows. EST clones produced from Xenopus laevis unfertilized eggs were used in the present study with ˜1,200 EST clones from a 18,500 EST clone set selected for production of a Xenopus cDNA microarray. The Xenopus microarray was used to measure the effect of chemical treatment on Xenopus embryo gene regulation. The chemical treatment was a phorbol ester, PMA. Xenopus eggs were obtained from females induced for ovulation and fertilized in vitro. Control Xenopus laevis embryos were allowed to develop to stage 8 blastula or stage 15 neurula. Treated embryos were exposed to PMA during cleavage stage or during neurulation with end points of blastula (stage 8) or neurula (stage 15). Specifically, PMA 100 ng/ml was added to the incubation media during cleavage stages for evaluation in stage 8 embryo or PMA was added during neural induction for evaluation in stage 15 embryos. RNA extracted from the embryos was used to generate fluorescent cDNA probes for Xenopus microarray analyses to measure differential gene expression with and without the phorbol ester treatment. Analysis was performed using paired RNA samples to compare PMA-treated and untreated embryos: Group I measured the effects of PMA-treatment during the cleavage stage in stage 8 embryos and Group II measured the effects of PMA-treatment during neurulation in stage 15 embryos. Group III measured the change in gene expression between stage 8 and stage 15 embryos.
cDNA fragments were obtained by PCR replication of Xenopus laevis unfertilized egg cDNA inserts, purified, quantitated and loaded onto glass chips by robotics. In addition to the selected ˜1,200 genes, 64 lambda Q gene, an internal control cDNA (Genomic Solutions, Inc., Ann Arbor, Mich.) was loaded on the chip. The insert DNA from ˜1,200 clones were PCR amplified using forward and reverse primers (GF.200 primers, Research Genetics, Huntsville, Ala.). A second PCR was carried out using 1 μl of the primary PCR (20 μl) for template. Excess dNTPs, polymerase and other PCR artifacts were removed from the secondary PCR reactions using Millipore Multiscreen plates (Millipore Corporation, Bedford, Mass.) using the standard protocol. The purity of the PCR products was assessed by electrophoresis and documented using an Alphalmager 1000 Digital Imaging System (Alpha Innotech Corporation, San Leandro, Calif.). The DNA obtained by PCR was quantitated using PicoGreen (Molecular Probes, Eugene, Oreg.). The DNA was denatured and arrayed onto amino-silane coated microscope slides (CMT-GAPS coated slides, Corning, Corning, N.Y.) using a Flexys robotic workstation (Genomic Solutions Inc.). The ˜1,200 PCR products were arrayed in duplicate on each slide and cross-linked. Each gene chip contained duplicate cDNA samples.
Total RNA was prepared from embryos treated in three separate dishes per treatment group that were pooled. Total RNA was isolated from the frog embryos (1,200 embryos for each probe production) using TRIzol extraction (Gibco BRL, Grand Island, N.Y.) and Qiagen RNeasy kits (Qiagen, Valencia, Calif.). The ethanol precipitated RNA was resuspended in RNase-free water, quantitated with RiboGreen (Molecular Probes, Eugene, Oreg.). Total RNA was further purified using oligoTex mRNA maxi kit (Qiagen Co.) with the bound mRNA eluted with minimum volume of elution buffer and precipitated with ethanol. The recovery rate of mRNA by the ethanol precipitation method was ˜70%. Cy3- or Cy5-tagged probes were produced from an mRNA mixture (20 μl) of Xenopus mRNA (5 μg) and lambda Q gene mRNA (3.5 ng) reverse-transcribed with oligo(dT)18-22 primer and dNTPs and the reverse-transcribed cDNA was cross-linked with Cy3 or Cy5 as described in Clontech Atlas™ Glass Fluorescent Labeling kit manual (www.clontech.com). After hydrolysis of the RNA and purification of the probe (Centricon 50, Millipore, Bedford, Mass.), the cDNA in TE buffer was quantitated by absorbance at 260 nm. […]

SMILES: CCCCCCCCCCCCCC(=O)O[C@@H]1[C@@H](C)[C@@]2(O)[C@@H](C=C(CO)C[C@]3(O)C(=O)C(C)=C[C@@H]23)[C@@H]2C(C)(C)[C@]12OC(C)=O [PMA, phorbol 12-myristate 12-acetate]
- Ratio of Medians (Cy5/Cy3) Mean (PBX0139G06 mRNA): 1.06 ± 0.00 ^a
- Ratio of Medians (Cy5/Cy3) Second Spot (PBX0139G06 mRNA): 1.06
- Cy3/Cy5 by Landmarks (0.25) (PBX0140A10 mRNA): 4.20
- Cy3/Cy5 by all Data Points (0.469) (PBX0140A10 mRNA): 2.24
- Normalized by Landmarks (0.25) (PBX0140A10 mRNA): 0.238
- Normalized by all Data Points (0.469) (PBX0140A10 mRNA): 0.446
- Ratio of Medians (Cy5/Cy3) First Spot (PBX0140A10 mRNA): 0.89
- Ratio of Medians (Cy5/Cy3) Mean (PBX0140A10 mRNA): 0.95 ± 0.06 ^a
- Ratio of Medians (Cy5/Cy3) Second Spot (PBX0140A10 mRNA): 1.00
- Cy3/Cy5 by Landmarks (0.25) (PBX0141B10 mRNA): 3.92
- Cy3/Cy5 by all Data Points (0.469) (PBX0141B10 mRNA): 2.09
- Normalized by Landmarks (0.25) (PBX0141B10 mRNA): 0.255
- Normalized by all Data Points (0.469) (PBX0141B10 mRNA): 0.478
- Ratio of Medians (Cy5/Cy3) First Spot (PBX0141B10 mRNA): 0.92
- Ratio of Medians (Cy5/Cy3) Mean (PBX0141B10 mRNA): 1.02 ± 0.10 ^a
- Ratio of Medians (Cy5/Cy3) Second Spot (PBX0141B10 mRNA): 1.12
- Cy3/Cy5 by Landmarks (0.25) (PBX0141H05 mRNA): 10.8
- Cy3/Cy5 by all Data Points (0.469) (PBX0141H05 mRNA): 5.76
- Normalized by Landmarks (0.25) (PBX0141H05 mRNA): 0.093
- Normalized by all Data Points (0.469) (PBX0141H05 mRNA): 0.174
- Ratio of Medians (Cy5/Cy3) First Spot (PBX0141H05 mRNA): 0.73
- Ratio of Medians (Cy5/Cy3) Mean (PBX0141H05 mRNA): 0.37 ± 0.36 ^a
- Ratio of Medians (Cy5/Cy3) Second Spot (PBX0141H05 mRNA): 0.015
- Normalized by Landmarks (0.25) (PBX 0141H12 mRNA): 1.40
- Normalized by all Data Points (0.469) (PBX 0141H12 mRNA): 2.63
- Ratio of Medians (Cy5/Cy3) First Spot (PBX 0141H12 mRNA): 7.46
- Ratio of Medians (Cy5/Cy3) Mean (PBX 0141H12 mRNA): 5.61 ± 1.85 ^a
- Ratio of Medians (Cy5/Cy3) Second Spot (PBX 0141H12 mRNA): 3.75
- Normalized by Landmarks (0.25) (PBX 0143E06 mRNA): 1.60
- Normalized by all Data Points (0.469) (PBX 0143E06 mRNA): 3.01
- Ratio of Medians (Cy5/Cy3) First Spot (PBX 0143E06 mRNA): 6.04
- Ratio of Medians (Cy5/Cy3) Mean (PBX 0143E06 mRNA): 6.41 ± 0.3 ^a
- Ratio of Medians (Cy5/Cy3) Second Spot (PBX 0143E06 mRNA): 6.78
- Normalized by Landmarks (0.25) (PBX 0143E11 mRNA): 1.41
- Normalized by all Data Points (0.469) (PBX 0143E11 mRNA): 2.64
- Ratio of Medians (Cy5/Cy3) First Spot (PBX 0143E11 mRNA): 4.62
- Ratio of Medians (Cy5/Cy3) Mean (PBX 0143E11 mRNA): 5.64 ± 1.01 ^a
- Ratio of Medians (Cy5/Cy3) Second Spot (PBX 0143E11 mRNA): 6.65
- Cy3/Cy5 by Landmarks (0.25) (PBX0144A09 mRNA): 4.00
- Cy3/Cy5 by all Data Points (0.469) (PBX0144A09 mRNA): 2.13
- Normalized by Landmarks (0.25) (PBX0144A09 mRNA): 0.250
- Normalized by all Data Points (0.469) (PBX0144A09 mRNA): 0.469
- Ratio of Medians (Cy5/Cy3) First Spot (PBX0144A09 mRNA): 0.83
- Ratio of Medians (Cy5/Cy3) Mean (PBX0144A09 mRNA): 1.00 ± 0.17 ^a
- Ratio of Medians (Cy5/Cy3) Second Spot (PBX0144A09 mRNA): 1.16
- Cy3/Cy5 by Landmarks (0.25) (PBX0145D04 mRNA): 4.35
- Cy3/Cy5 by all Data Points (0.469) (PBX0145D04 mRNA): 2.32
- Normalized by Landmarks (0.25) (PBX0145D04 mRNA): 0.230
- Normalized by all Data Points (0.469) (PBX0145D04 mRNA): 0.431
- Ratio of Medians (Cy5/Cy3) First Spot (PBX0145D04 mRNA): 0.9
- Ratio of Medians (Cy5/Cy3) Mean (PBX0145D04 mRNA): 0.92 ± 0.02 ^a
- Ratio of Medians (Cy5/Cy3) Second Spot (PBX0145D04 mRNA): 0.95
- Cy3/Cy5 by Landmarks (0.25) (PBX0145D06 mRNA): 4.03
- Cy3/Cy5 by all Data Points (0.469) (PBX0145D06 mRNA): 2.15
- Normalized by Landmarks (0.25) (PBX0145D06 mRNA): 0.248
- Normalized by all Data Points (0.469) (PBX0145D06 mRNA): 0.464
- Ratio of Medians (Cy5/Cy3) First Spot (PBX0145D06 mRNA): 0.98
- Ratio of Medians (Cy5/Cy3) Mean (PBX0145D06 mRNA): 0.99 ± 0.01 ^a
- Ratio of Medians (Cy5/Cy3) Second Spot (PBX0145D06 mRNA): 1.00
- % increase of mRNA expression by Microarray analysis (NF by all data point) (gene PBX0135A08): no change
- % increase of mRNA expression by Microarray analysis (NF by all data point) (gene PBX013409): no change
